# Data as given in patent publication US20080057138A1, “RESTORATIVE SKIN CREAM” (Telford Holdings Ltd., priority 2006, published 2008).
# Experiments:
# [1] = test system: sunburns; details: cited from earlier work; for SPF equivalent: topical application, background section, no trial described
# [2] = test system: photo ageing; test: Example 2: side effects in patients treated for photo ageing, topical tretinoin versus formulations of the invention; type: in vivo, human
# Description: In a trial conducted by a practicing dermatologist, involving 267 patients undergoing treatment for photo ageing using slowly increasing strengths of topical tretinoin, side effects were frequent and prolonged. An average of 3.7 reactions sufficiently severe to cause discontinuation of therapy were experienced and each reaction required discontinuation of treatment for an average of 7.7 days. Only 14% of patients were able to be treated without side effects at the commercially available strength of 0.1% tretinoin. […] The side effects were mild and were ameliorated by re-introducing the regime as alternate day treatment in the areas of irritation. Only 1.5% of patients were unable to tolerate the regime.
# [3] = test system: photo aging; test: open label proof of concept trials over 5 years in 300 patients, reversal of photo aging; type: in vivo, human
# Description: Animal models have an inherent limitation and are not necessarily directly applicable to humans. For example, various mammalian species have different metabolic characteristics. In particularly, most animals have the capacity to manufacture their own vitamin C.
# Indeed, the studies appear to indicate a synergetic effect between vitamins C and E in the morning, and vitamins A and E in the evening.
# [4] = test system: sunburns; test: Example 4: UVB sunburn study in 34 volunteers, test compounds applied before or after 1 or 3 MEDs of UVB; type: in vivo, human; details: for prevention of the development of sunburns: applied daily for 3 days before 1 or 3 MEDs of UVB; for treatment of the induced sunburns, review of the data of the left side: left side of the back
# Experimental: In a study conducted by a practicing dermatologist, after informed consent, 34 volunteers were treated in the following manner. On the left side of the back, one inch squares were marked and treated daily for 3 days with 12 test compounds including a control of vehicle and a commercial identified sunscreen. After determining the MED (minimal erythema dose) for each subject, each subject was treated with one or 3 MEDs of UVB on both sides of the back. On the right side, 18 test compounds were applied including a vehicle control post sunburn at 0 hours, 8 hours, 24 and 48 hours. Measurements of the severity of the burns were recorded as the end point at 8, 24 and 48 hours.
# [5] = test system: sunburns; test: ability to prevent sunburns (SPF equivalent) after topical application; type: in vivo, human
# Description: Each of the three vitamins A, C and E, and complexes thereof, when topically applied individually at therapeutic levels, markedly increases the ability of the skin to absorb free radicals. Each vitamin molecule, as a measurement of this effect, adds the ability to absorb 2 MEDs (minimal erythema dose) of energy or a total of 6 MEDS if all three vitamins are present simultaneously. […] SPF (Sun Protection Factor) is a recognized measure of ultraviolet screen ability. Simultaneous application of a tri-vitamin regimen of vitamins A, C and E can result in an SPF equivalent of 24. Use of the three vitamins together in effective amounts results in enhanced protection of the skin against sunburn and, unlike sunscreens per se, persists in effect until the molecules are consumed by the body. […] The enhancement of photo protection by the tri-vitamin therapy according to the invention is particularly important as a solar spectrum (UVA, UVB) sun protectant. The effects of simultaneous use of the tri-vitamin regime and sunscreens are additive.
# One measure of the activity has been to assess the ability to prevent sunburns.
SMILES,SPF equivalent [1],prevention of the development of sunburns [4],"treatment of the induced sunburns, review of the data of the left side [4]",effect on sunburn [5],also measured
CC1=C(/C=C/C(C)=C/C=C/C(C)=C/CO)C(C)(C)CCC1 [retinol],20,–,–,–,–
"CC1=C(/C=C/C(C)=C/C=C/C(C)=C/C(=O)O)C(C)(C)CCC1 [tretinoin, all-trans retinoic acid]",–,–,–,–,"average discontinuation of treatment per reaction ([2]; 267 patients): 7.7 days; average reactions sufficiently severe to cause discontinuation of therapy ([2]; 267 patients, slowly increasing strengths): 3.7; patients able to be treated without side effects ([2]; at commercially available strength of 0.1%): 14%"
"CCCCCCCCCCCCCCCC(=O)OC/C=C(C)/C=C/C=C(C)/C=C/C1=C(C)CCCC1(C)C [vitamin A palmitate, retinyl palmitate]",20,–,–,–,frequency of irritation ([3]; compared with topical tretinoin): markedly reduced frequency of irritation
"O=C1O[C@H]([C@@H](O)CO)C(O)=C1O [vitamin C, L-ascorbic acid]",–,able to prevent the development of sunburns,significant visible improvement,effective in reducing sunburns,persistence of photoprotection ([1]; following a single application): at least 4 days
"Cc1c(C)c2c(c(C)c1O)CC[C@@](C)(CCC[C@H](C)CCC[C@H](C)CCCC(C)C)O2 [vitamin E, α-tocopherol]",–,able to prevent the development of sunburns,significant visible improvement,significantly ameliorated the signs and symptoms of sunburn,treatment of sunburns ([4]; applied post sunburn): statistically visible significant treatment benefit; clinical effect on photo aging ([3]; topical): enhance reversal of photo aging
